Measurements as given in patent US12622925B2 (priority 2018, dated 2026).

Test system: Hydra vulgaris
Type: in vivo
Conditions: results in 100% hydra mortality in 92 h
Procedure: Hydra vulgaris were obtained from Environment Canada (Montreal, Qc) and maintained at 18° C. The hydra classification method (Wilby, O. K., Tesh, J. M., & Shore, P. R., 1990) was used with modification to rate morphology of the adult hydra as an indicator of solution toxicity. In this assay, the scoring of hydra morphology is objective and repeatable with representation in detail in previous literature. The assay included monitoring times at shorter intervals during the first two days (0, 4, 20, and 28 h) and 24 h intervals for the last three days (44, 68, and 92 h). Solutions were not changed during testing. The hydra morphological response was scored and recorded after exposure of toxin with and without sorbent treatment. Mature and non-budding hydra in similar sizes were chosen for testing in order to minimize differences between samples. Controls for this experiment included hydra media. […] The score or average toxicity rating was determined by calculating the average score for morphological changes for a certain group at a specific time point.
FIG. 2 is a depiction of the hydra morphology scale by Wilby (1988): The scale is graded from 0-10, where 10 represents a normal living hydra and 0 represents a disintegrated hydra. The physiologic conditions of hydra were assessed with a dissecting microscope.

Compound: C[C@H]1CCCC(=O)CCC/C=C/c2cc(O)cc(O)c2C(=O)O1 [ZEN, zearalenone]
- minimal effective concentration (MEC): 4 ppm
